The values that follow come from ChEMBL document CHEMBL2021914, “Inhibition of platelet adhesion by peptidomimetics mimicking the interactive β-hairpin of glycoprotein Ibα” (Bioorg Med Chem Lett, 2012).

For assay [1], the target named is von Willebrand factor (Homo sapiens) (UniProt P04275). In words: Inhibition of GPIbalpha-vWF binding assessed as inhibition of ristocetin-induced platelet agglutination at 100 uM after 2 mins by static agglutination assay.
Assay [2] has the same target. Briefly: Inhibition of GPIbalpha-human vWF binding assessed as platelet rolling velocity at 100 uM preincubated for 5 mins by parallel plate flow assay with real time imaging microscopy (reference value: 7.1 um/sec).
Assay [3] shares this target. In words: Inhibition of GPIbalpha-vWF binding assessed as ristocetin-induced platelet agglutination at 100 uM after 2 mins by static agglutination assay using washed platelets from male (reference value: 58%). Also on record: scale not given: the % may be the effect or the level left.
Assay [4] shares this target. Briefly: Inhibition of GPIbalpha-vWF binding assessed as ristocetin-induced platelet agglutination at 100 uM after 2 mins by static agglutination assay using washed platelets from female (reference value: 61.7%). Set-up: scale not given: the % may be the effect or the level left.
Assay [5] has the same target. Briefly: Inhibition of GPIbalpha-human vWF binding assessed as decrease in arterial shear-induced platelet adhesion to vWF measuring number of platelets adhered during flow at 100 uM preincubated for 5 mins by parallel plate flow assay with real time imaging microscopy.
Assay [6] shares this target. In words: Inhibition of GPIbalpha-human vWF binding assessed as decrease in arterial shear-induced platelet adhesion to vWF measuring number of platelets adhered after flow at 100 uM preincubated for 5 mins by parallel plate flow assay with real time imaging microscopy.
Assay [7] shares this target. Briefly: Inhibition of GPIbalpha-vWF binding assessed as constant shear stress at 120 dynes/cm'2-induced platelet agglutination at 10 uM preincubated for 5 mins by cone and plate rheometer analysis relative to control using male platelet rich plasma (reference value: 100%). Also on record: scale not given: the % may be the effect or the level left.
For assay [8] the target is unchanged. Briefly: Inhibition of GPIbalpha-vWF binding assessed as constant shear stress at 120 dynes/cm'2-induced platelet agglutination at 10 uM preincubated for 5 mins by cone and plate rheometer analysis relative to control using female platelet rich plasma (reference value: 100%). Set-up: scale not given: the % may be the effect or the level left.
For assay [9] the target is unchanged. Briefly: Inhibition of GPIbalpha-vWF binding assessed as ristocetin-induced platelet agglutination at 1 uM after 2 mins by static agglutination assay using washed platelets (reference value: 66.5%). Set-up: scale not given: the % may be the effect or the level left.
Assay [10] shares this target. In words: Inhibition of GPIbalpha-vWF binding assessed as ristocetin-induced platelet agglutination at 10 uM after 2 mins by static agglutination assay using washed platelets (reference value: 66.5%). Set-up: scale not given: the % may be the effect or the level left.
The target is the same in assay [11]. In words: Inhibition of GPIbalpha-vWF binding assessed as ristocetin-induced platelet agglutination at 100 uM after 2 mins by static agglutination assay using washed platelets (reference value: 66.5%). Set-up: scale not given: the % may be the effect or the level left.
Assay [12] has the same target. Briefly: Inhibition of GPIbalpha-vWF binding assessed as ristocetin-induced platelet agglutination at 1 uM after 2 mins by static agglutination assay using platelet rich plasma (reference value: 76.3%). Also on record: scale not given: the % may be the effect or the level left.
Assay [13] shares this target. Briefly: Inhibition of GPIbalpha-vWF binding assessed as ristocetin-induced platelet agglutination at 10 uM after 2 mins by static agglutination assay using platelet rich plasma (reference value: 76.3%). Also on record: scale not given: the % may be the effect or the level left.
For assay [14] the target is unchanged. Briefly: Inhibition of GPIbalpha-vWF binding assessed as ristocetin-induced platelet agglutination at 100 uM after 2 mins by static agglutination assay using platelet rich plasma (reference value: 76.3%). Also on record: scale not given: the % may be the effect or the level left.
For assay [15] the target is unchanged. In words: Inhibition of GPIbalpha-vWF binding assessed as inhibition of ristocetin-induced platelet agglutination at 100 uM after 2 mins by static agglutination assay using washed platelets from male.
Assay [16] has the same target. Briefly: Inhibition of GPIbalpha-vWF binding assessed as inhibition of ristocetin-induced platelet agglutination at 100 uM after 2 mins by static agglutination assay using washed platelets from female.

Active and inactive are the calls of the source. The calls are words filed in the database; no cut-off is given here. Where a SMILES comes first, the peptide text is derived from it. Bridges are numbered along the chain shown (N, C = ends).

Chain of von Willebrand factor (Homo sapiens) (P04275 whole entry): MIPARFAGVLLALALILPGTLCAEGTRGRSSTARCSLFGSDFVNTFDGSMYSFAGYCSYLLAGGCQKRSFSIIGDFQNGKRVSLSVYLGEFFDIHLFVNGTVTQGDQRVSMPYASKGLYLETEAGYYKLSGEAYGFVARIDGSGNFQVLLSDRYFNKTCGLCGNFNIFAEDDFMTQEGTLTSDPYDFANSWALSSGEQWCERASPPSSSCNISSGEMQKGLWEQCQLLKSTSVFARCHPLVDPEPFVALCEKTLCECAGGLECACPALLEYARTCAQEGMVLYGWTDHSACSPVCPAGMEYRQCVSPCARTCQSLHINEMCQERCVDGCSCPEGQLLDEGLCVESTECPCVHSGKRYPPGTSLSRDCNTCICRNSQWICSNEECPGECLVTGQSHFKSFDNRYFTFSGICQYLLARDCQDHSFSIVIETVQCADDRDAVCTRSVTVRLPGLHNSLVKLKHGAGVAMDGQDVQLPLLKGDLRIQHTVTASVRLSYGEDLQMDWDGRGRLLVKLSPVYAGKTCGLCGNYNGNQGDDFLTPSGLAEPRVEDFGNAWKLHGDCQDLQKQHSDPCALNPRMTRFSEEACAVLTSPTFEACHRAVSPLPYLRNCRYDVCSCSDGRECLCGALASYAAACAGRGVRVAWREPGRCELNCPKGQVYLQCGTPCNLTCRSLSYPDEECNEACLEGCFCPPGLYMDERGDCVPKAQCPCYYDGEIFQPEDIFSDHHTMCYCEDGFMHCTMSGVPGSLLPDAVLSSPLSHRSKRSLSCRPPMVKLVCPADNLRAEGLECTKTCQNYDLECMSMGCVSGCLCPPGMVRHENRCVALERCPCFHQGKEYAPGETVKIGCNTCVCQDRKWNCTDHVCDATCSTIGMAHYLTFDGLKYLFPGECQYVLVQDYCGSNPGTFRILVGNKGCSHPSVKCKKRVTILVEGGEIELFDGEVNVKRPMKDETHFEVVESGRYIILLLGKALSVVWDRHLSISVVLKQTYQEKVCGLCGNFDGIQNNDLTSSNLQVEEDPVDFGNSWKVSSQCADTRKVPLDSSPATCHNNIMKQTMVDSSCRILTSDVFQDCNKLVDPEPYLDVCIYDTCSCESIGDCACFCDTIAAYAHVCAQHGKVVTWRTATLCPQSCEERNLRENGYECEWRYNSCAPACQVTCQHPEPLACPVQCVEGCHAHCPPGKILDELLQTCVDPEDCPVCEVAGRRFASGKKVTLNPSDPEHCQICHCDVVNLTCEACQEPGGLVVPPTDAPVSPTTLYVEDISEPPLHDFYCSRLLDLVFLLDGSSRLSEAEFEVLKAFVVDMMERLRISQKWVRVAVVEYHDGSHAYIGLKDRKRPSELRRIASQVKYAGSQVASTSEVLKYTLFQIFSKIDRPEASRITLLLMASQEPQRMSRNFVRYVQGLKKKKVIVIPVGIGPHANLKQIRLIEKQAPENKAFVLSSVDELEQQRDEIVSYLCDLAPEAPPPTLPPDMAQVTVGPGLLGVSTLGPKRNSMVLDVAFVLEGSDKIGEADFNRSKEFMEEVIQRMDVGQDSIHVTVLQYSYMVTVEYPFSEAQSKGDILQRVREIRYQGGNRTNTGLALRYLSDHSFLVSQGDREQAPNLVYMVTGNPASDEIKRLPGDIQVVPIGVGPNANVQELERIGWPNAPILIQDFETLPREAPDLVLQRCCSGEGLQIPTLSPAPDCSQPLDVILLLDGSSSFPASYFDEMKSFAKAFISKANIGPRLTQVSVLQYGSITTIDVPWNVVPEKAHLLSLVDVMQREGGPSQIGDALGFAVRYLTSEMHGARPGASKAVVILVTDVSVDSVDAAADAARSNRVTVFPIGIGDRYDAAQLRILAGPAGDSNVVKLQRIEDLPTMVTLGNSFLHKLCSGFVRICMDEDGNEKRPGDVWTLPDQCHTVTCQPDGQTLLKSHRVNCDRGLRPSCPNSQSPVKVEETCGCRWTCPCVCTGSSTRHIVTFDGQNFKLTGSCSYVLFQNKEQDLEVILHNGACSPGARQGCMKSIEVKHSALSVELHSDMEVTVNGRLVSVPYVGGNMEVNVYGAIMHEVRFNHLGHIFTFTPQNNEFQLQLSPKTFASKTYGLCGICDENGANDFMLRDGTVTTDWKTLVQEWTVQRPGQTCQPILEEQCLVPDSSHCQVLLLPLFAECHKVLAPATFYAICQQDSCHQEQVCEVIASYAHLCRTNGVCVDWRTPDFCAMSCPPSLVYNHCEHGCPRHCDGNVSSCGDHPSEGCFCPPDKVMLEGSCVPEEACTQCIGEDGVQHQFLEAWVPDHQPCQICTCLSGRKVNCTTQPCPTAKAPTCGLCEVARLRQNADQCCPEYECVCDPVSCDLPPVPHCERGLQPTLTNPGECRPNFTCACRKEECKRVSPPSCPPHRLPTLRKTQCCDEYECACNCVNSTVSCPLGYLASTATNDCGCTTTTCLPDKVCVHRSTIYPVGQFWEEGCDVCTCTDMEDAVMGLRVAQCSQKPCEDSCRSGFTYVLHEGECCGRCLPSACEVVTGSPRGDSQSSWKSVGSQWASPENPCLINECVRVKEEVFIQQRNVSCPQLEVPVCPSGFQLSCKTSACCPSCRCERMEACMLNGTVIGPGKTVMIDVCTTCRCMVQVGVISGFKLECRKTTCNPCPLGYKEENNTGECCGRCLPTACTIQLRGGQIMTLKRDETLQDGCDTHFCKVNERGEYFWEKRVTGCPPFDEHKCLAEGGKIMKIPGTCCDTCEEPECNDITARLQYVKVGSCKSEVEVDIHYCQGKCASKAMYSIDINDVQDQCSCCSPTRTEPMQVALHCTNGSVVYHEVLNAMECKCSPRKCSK

In the case of `CC(=O)N[C@@H](CO)C(=O)N[C@@H](Cc1cnc[nH]1)C(=O)N[C@@H](CC(C)C)C(=O)N[C@@H](CCC(=O)O)C(=O)N[C@H](C(=O)N[C@@H](CC(N)=O)C(=O)N1CCC[C@H]1C(=O)N1CCC[C@@H]1C(=O)N[C@@H](CCC(=O)O)C(=O)N[C@H](C(=O)N[C@@H](CO)C(=O)N[C@@H](CCCCN)C(=O)N[C@H](C(=O)N[C@@H](C)C(=O)O)C(C)C)C(C)C)C(C)C`, the inhibition in [1] amounted to 42.1%.
Still for that read-out and setting: the same measure for `CC(C)[C@@H]1NC(=O)CNC(=O)[C@H](CCC(N)=O)NC(=O)[C@H](CCCCN)NC(=O)[C@H](Cc2c[nH]c3ccccc23)NC(=O)[C@H](C(C)C)NC(=O)[C@H]2CCCN2C(=O)[C@@H]2CCCN2C(=O)[C@H]([C@@H](C)O)NC(=O)[C@H](C(C)C)NC(=O)[C@H](C)NC(=O)[C@H](CCCCN)NC(=O)[C@H](C(C)C)NC(=O)[C@H](CC(=O)O)NC1=O`: 8.9%; for `CC(C)C[C@@H]1NC(=O)[C@H](Cc2cnc[nH]2)NC(=O)[C@H](CO)NC(=O)[C@H](C)NC(=O)[C@H](C(C)C)NC(=O)[C@H](CCCCN)NC(=O)[C@H](CO)NC(=O)[C@H](C(C)C)NC(=O)[C@H](CCC(=O)O)NC(=O)[C@H]2CCCN2C(=O)[C@@H]2CCCN2C(=O)[C@H](CC(N)=O)NC(=O)[C@H](C(C)C)NC(=O)[C@H](CCC(=O)O)NC1=O`: 10.4%.
Turning to `CC(C)[C@H](NC(=O)CNC(=O)[C@@H]1CSSC[C@H](NC(=O)[C@@H](NC(=O)[C@@H](N)CC(=O)O)C(C)C)C(=O)N[C@@H](C)C(=O)N[C@@H](C(C)C)C(=O)N2CCC[C@H]2C(=O)N2CCC[C@@H]2C(=O)N[C@@H](Cc2c[nH]c3ccccc23)C(=O)N[C@@H](CCCCN)C(=O)N1)C(N)=O`, in assay [1], the inhibition came out at 28.5%. Besides, the Activity in assay [2] was found to be 7 um/s; in assay [3], 36%; in [4], 57.3%.
As to `CC(C)[C@@H]1NC(=O)CNC(=O)[C@H](CCC(N)=O)NC(=O)[C@H](CCCCN)NC(=O)[C@H](Cc2c[nH]c3ccccc23)NC(=O)[C@H](C(C)C)NC(=O)[C@H](Cc2ccc(O)cc2)NC(=O)[C@H](C(C)C)NC(=O)[C@@H]2CCCN2C(=O)CNC(=O)[C@@H]2CCCN2C(=O)[C@H](CC(N)=O)NC(=O)[C@H](CO)NC(=O)[C@H]([C@@H](C)O)NC(=O)[C@H](C(C)C)NC(=O)[C@H](C)NC(=O)[C@H](CCCCN)NC(=O)[C@H](C(C)C)NC(=O)[C@H](CC(=O)O)NC1=O` (cyclo(AVTSNPGPVYVWKQGVDVK)), the inhibition in assay [1] is 40.5%. Further, the inhibition entry in assay [5] and in [6] was “Active” throughout.
In the case of `CC(C)[C@@H]1NC(=O)CNC(=O)[C@@H]2CSSC[C@H](NC(=O)[C@H](C(C)C)NC(=O)[C@H](CC(=O)O)NC1=O)C(=O)N[C@@H](C)C(=O)N[C@@H](C(C)C)C(=O)N[C@@H]([C@@H](C)O)C(=O)N1CCC[C@H]1C(=O)N1CCC[C@@H]1C(=O)N[C@@H](C(C)C)C(=O)N[C@@H](Cc1c[nH]c3ccccc13)C(=O)N[C@@H](CCCCN)C(=O)N2`, in assay [1], the inhibition is 44.6%.
`CC(C)C[C@@H]1NC(=O)[C@H](Cc2cnc[nH]2)NC(=O)[C@H](CO)NC(=O)[C@H](C)NC(=O)[C@H](C(C)C)NC(=O)[C@H](CCCCN)NC(=O)[C@H](CO)NC(=O)[C@H](C(C)C)NC(=O)[C@H](CCC(=O)O)NC(=O)[C@@H](N)CSSC[C@@H](C(=O)N[C@@H](CC(=O)O)C(=O)N[C@@H](CCCCN)C(N)=O)NC(=O)[C@H](CC(N)=O)NC(=O)[C@H](C(C)C)NC(=O)[C@H](CCC(=O)O)NC1=O` (H-CEVSKVASHLEVNCDK-NH2; disulfide 1-14): the inhibition in assay [1] is 7.1%.
Turning to `CC(C)[C@H](NC(=O)CNC(=O)[C@H](CCC(N)=O)NC(=O)[C@H](CCCCN)NC(=O)[C@H](Cc1c[nH]c2ccccc12)NC(=O)[C@H]1CCCN1C(=O)[C@@H]1CCCN1C(=O)[C@@H](NC(=O)[C@H](C)NC(=O)[C@H](CCCCN)NC(=O)[C@@H](NC(=O)[C@@H](N)CC(=O)O)C(C)C)C(C)C)C(=O)O`, the Activity in assay [2] was 5.6 um/s; in assay [3] it was 58.8%; in [4] it was 59.7%; in [7], 111%; in assay [8], 99.7%.
On to H-PGPVYVWKQGVDVKAVTSN-OH, for which the inhibition entry in assay [5] and in assay [6] was “inactive” throughout.
Take `CC(C)[C@@H]1NC(=O)CNC(=O)[C@@H]2CSSC[C@H](NC(=O)[C@H](C(C)C)NC(=O)[C@H](CC(=O)O)NC1=O)C(=O)N[C@@H](C)C(=O)N[C@@H](C(C)C)C(=O)N1CCC[C@H]1C(=O)N1CCC[C@@H]1C(=O)N[C@@H](Cc1c[nH]c3ccccc13)C(=O)N[C@@H](CCCCN)C(=O)N2`: the inhibition in [1] was determined as 43.9%; in [15], 44.8%; in [16], 17.8%. Moreover, the Activity amounted to 57.5% in assay [9]; 46% in [10]; 37.3% in assay [11]; 61.7% in assay [12]; 57.3% in [13]; 46.7% in assay [14]. Besides, the Activity came to 8.1 um/s in assay [2]; 32% in [3]; 50.7% in assay [4]; 107% in assay [7]; 122% in [8].
